Reference: patent publication US10875876B2, “Cyclized sulfamoylarylamide derivatives and the use thereof as medicaments for the treatment of hepatitis B” (priority 2015, dated 2020)
pEC50: −log10 of the molar value. Read-outs that look alike come from different tables or passages of the source.

Legend:
[1] = Cytotoxicity in HepG2 cells, Resazurin assay; settings: human, HepG2 cells, TOX-HepG2-4 d CC50 (μM), HepG2 cells incubated for 4 days, viability by Resazurin assay
HBV = assay: anti HBV activity, HepG2.117 cell line, intracellular HBV DNA by realtime PCR; type: cell-based; settings: HepG2.117 cell line (Tet-off), 3 days of treatment, intracellular HBV DNA quantified by realtime PCR, read-out: HBV-AVE-HepG2.117 EC50
Summary of the method: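 HepG2.117 cells, a Tet-off line that replicates HBV without doxycycline, were induced and then treated in duplicate with serially diluted compound. After 3 days, intracellular HBV DNA was quantified by real-time PCR with an HBV-specific primer set and probe.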

[2] = Hepatitis B virus, HepG2.117, 72 h

| SMILES | CC50 at 4 days [1] | pEC50 (HBV) | pEC50 (HBV; [2]) |
| --- | --- | --- | --- |
| Cn1cc2c(c1C(=O)Nc1ccc(F)c(F)c1)OC[C@@H](C(O)C1CC1)NS2(=O)=O (single isomer, unassigned) [Compound 92a] | > 24 µM | 7.51 |  |
| C[C@H](O)[C@H]1CCc2c(cn(C)c2C(=O)Nc2ccc(F)c(C#N)c2)S(=O)(=O)N1 [Compound 90, (3R)—N-(3-cyano-4-fluoro-phenyl)-3-[(1S)-1-hydroxyethyl]-7-methyl-1,1-dioxo-2,3,4,5-tetrahydropyrrolo[3,4-f]thiazepine-6-carboxamide] | > 25 µM |  | 7.72 |
| Cn1ccc(C2(C)COc3c(cn(C)c3C(=O)Nc3ccc(F)c(F)c3)S(=O)(=O)N2)n1 (racemic) [Compound 192, N-(3,4-difluorophenyl)-3,7-dimethyl-3-(1-methylpyrazol-3-yl)-1,1-dioxo-2,4-dihydropyrrolo[3,4-b][1,4,5]oxathiazepine-6-carboxamide] | > 25 µM |  | 7.25 |
| Cn1cc2c(c1C(=O)Nc1ccc(F)c(C#N)c1)CCC(C(C)(C)O)NS2(=O)=O (single isomer, unassigned) [Compound 116a, N-(3-cyano-4-fluoro-phenyl)-3-(1-hydroxy-1-methyl-ethyl)-7-methyl-1,1-dioxo-2,3,4,5-tetrahydropyrrolo[3,4-f]thiazepine-6-carboxamide] | > 25 µM | 7.66 |  |
| CC(C)C1CCc2c(cn(C)c2C(=O)Nc2ccc(F)c(C(F)F)c2)S(=O)(=O)N1 (centres unmarked) [Compound 86, N-[3-(difluoromethyl)-4-fluoro-phenyl]-3-isopropyl-7-methyl-1,1-dioxo-2,3,4,5-tetrahydropyrrolo[3,4-f]thiazepine-6-carboxamide] | > 25 µM |  | 8.30 |
| Cc1cc(CC2(C)COc3c(cn(C)c3C(=O)Nc3ccc(F)c(F)c3)S(=O)(=O)N2)n(C)n1 (racemic) [Compound 175, N-(3,4-difluorophenyl)-3-[(2,5-dimethylpyrazol-3-yl)methyl]-3,7-dimethyl-1,1-dioxo-2,4-dihydropyrrolo[3,4-b][1,4,5]oxathiazepine-6-carboxamide] | > 25 µM |  | 8.40 |
| Cn1cc2c(c1C(=O)Nc1ccc(F)c(F)c1)OCC(C(O)c1ccncc1)NS2(=O)=O (centres unmarked) [Compound 183, N-(3,4-difluorophenyl)-3-[hydroxy(4-pyridyl)methyl]-7-methyl-1,1-dioxo-3,4-dihydro-2H-pyrrolo[3,4-b][1,4,5]oxathiazepine-6-carboxamide] | > 25 µM |  | 8.70 |
| CC[C@@H]1COc2c(cn(C)c2C(=O)Nc2ccc(F)c(F)c2)S(=O)(=O)N1 [Compound 20, (3R)—N-(3,4-difluorophenyl)-3-ethyl-7-methyl-1,1-dioxo-3,4-dihydro-2H-pyrrolo[3,4-b][1,4,5]oxathiazepine-6-carboxamide] | > 25 µM |  | 7.24 |
| Cn1cc2c(c1C(=O)Nc1cc(F)c(F)c(F)c1)OCC(C)(CO)NS2(=O)=O (single isomer, unassigned) [Compound 214a, 3-(hydroxymethyl)-3,7-dimethyl-1,1-dioxo-N-(3,4,5-trifluorophenyl)-2,4-dihydropyrrolo[3,4-b][1,4,5]oxathiazepine-6-carboxamide] | > 25 µM | 6.92 |  |
| Cn1cc2c(c1C(=O)Nc1ccnc(Cl)c1)OCC(C)(CO)NS2(=O)=O (single isomer, unassigned) [Compound 204a, N-(2-chloro-4-pyridyl)-3-(hydroxymethyl)-3,7-dimethyl-1,1-dioxo-2,4-dihydropyrrolo[3,4-b][1,4,5]oxathiazepine-6-carboxamide] | > 25 µM |  | < 6.90 |
| CC1CCCC/C=C/Cc2c(cn(C)c2C(=O)Nc2ccc(F)c(F)c2)S(=O)(=O)N1 (centres unmarked) [Compound 1, (9E)-N-(3,4-difluorophenyl)-4,14-dimethyl-2,2-dioxo-2λ^6-thia-3,14-diazabicyclo[10.3.0]pentadeca-1(15),9,12-triene-13-carboxamide] | > 25 µM |  | 5.56 |
| CC[C@H](C)[C@H]1COc2c(cn(C)c2C(=O)Nc2ccc(F)c(F)c2)S(=O)(=O)N1 [Compound 23, (3 S)—N-(3,4-difluorophenyl)-7-methyl-3-[(1S)-1-methylpropyl]-1,1-dioxo-3,4-dihydro-2H-pyrrolo[3,4-b][1,4,5]oxathiazepine-6-carboxamide] | 10.6 µM |  | 8.30 |
| Cn1cc2c(c1C(=O)Nc1ccc(F)c(F)c1)OCC1(CCN(Cc3ccccc3)C1)NS2(=O)=O (centres unmarked) [Compound 216, 1′-benzyl-N-(3,4-difluorophenyl)-7-methyl-1,1-dioxo-spiro[2,4-dihydropyrrolo[3,4-b][1,4,5]oxathiazepine-3,3′-pyrrolidine]-6-carboxamide] | > 25 µM |  | 7.47 |
| Cn1cc2c(c1C(=O)Nc1ccc(F)c(Cl)c1)OCC1(CCOC1)NS2(=O)=O (racemic) [Compound 212, N-(3-chloro-4-fluoro-phenyl)-7-methyl-1,1-dioxo-spiro[2,4-dihydropyrrolo[3,4-b][1,4,5]oxathiazepine-3,3′-tetrahydrofuran]-6-carboxamide] | > 25 µM |  | 8.15 |
| Cn1cc2c(c1C(=O)Nc1ccc(F)c(F)c1)OCC(C(=O)O)NS2(=O)=O (centres unmarked) [compound 242] | > 25 µM |  | < 6.89 |
| C[C@H]1C=Cc2c(cn(C)c2C(=O)Nc2ccnc(C(F)(F)F)c2)S(=O)(=O)N1 (single isomer, unassigned) [Compound 42, (3*S)-3,7-dimethyl-1,1-dioxo-N-[2-(trifluoromethyl)-4-pyridyl]-2,3-dihydropyrrolo[3,4-f]thiazepine-6-carboxamide] | > 25 µM |  | 7.09 |
| Cc1cc(CC2(C)COc3c(cn(C)c3C(=O)Nc3ccc(F)c(C#N)c3)S(=O)(=O)N2)no1 (single isomer, unassigned) [Compound 220a, N-(3-cyano-4-fluoro-phenyl)-3,7-dimethyl-3-[(5-methylisoxazol-3-yl)methyl]-1,1-dioxo-2,4-dihydropyrrolo[3,4-b][1,4,5]oxathiazepine-6-carboxamide] | > 25 µM | 8.15 |  |
| C[C@H]1CCc2c(cn(C)c2C(=O)Nc2ccc(F)c(Cl)c2F)S(=O)(=O)N1 (single isomer, unassigned) [Compound 54, (3*S)—N-(3-chloro-2,4-difluoro-phenyl)-3,7-dimethyl-1,1-dioxo-2,3,4,5-tetrahydropyrrolo[3,4-f]thiazepine-6-carboxamide] | > 25 µM |  | 8.40 |
| CO[C@H](C)[C@H]1COc2c(cn(C)c2C(=O)Nc2ccc(F)c(F)c2)S(=O)(=O)N1 [Compound 62, (3R)—N-(3,4-difluorophenyl)-3-[(1R)-1-methoxyethyl]-7-methyl-1,1-dioxo-3,4-dihydro-2H-pyrrolo[3,4-b][1,4,5]oxathiazepine-6-carboxamide] | > 25 µM |  | 8.05 |
| C[C@H]1CCc2c(cn(C)c2C(=O)Nc2ccc(F)c(C#N)c2)S(=O)(=O)N1 (single isomer, unassigned) [Compound 56, (3*S)—N-(3-cyano-4-fluoro-phenyl)-3,7-dimethyl-1,1-dioxo-2,3,4,5-tetrahydropyrrolo[3,4-f]thiazepine-6-carboxamide] | > 25 µM |  | 8.00 |
| CC1C=Cc2c(cn(C)c2C(=O)Nc2ccc(F)c(F)c2)S(=O)(=O)N1C (centres unmarked) [Compound 18, N-(3,4-difluorophenyl)-2,3,7-trimethyl-1,1-dioxo-3H-pyrrolo-[3,4-f]thiazepine-6-carboxamide] | > 25 µM |  | 6.15 |
| Cn1cc2c(c1C(=O)Nc1ccc(F)c(F)c1)CCC1(COC1)NS2(=O)=O [Compound 131, N-(3,4-difluorophenyl)-7-methyl-1,1-dioxo-spiro[4,5-dihydro-2H-pyrrolo[3,4-f]thiazepine-3,3′-oxetane]-6-carboxamide] | > 25 µM |  | 7.64 |
| C=C1c2c(cn(C)c2C(=O)Nc2ccc(F)c(C(F)F)c2)S(=O)(=O)NC1C(C)C (centres unmarked) [compound 238] | > 25 µM |  | 7.11 |
| Cn1cc2c(c1C(=O)Nc1ccc(F)c(C#N)c1)OCCNS2(=O)=O [Compound 91, N-(3-cyano-4-fluoro-phenyl)-7-methyl-1,1-dioxo-3,4-dihydro-2H-pyrrolo[3,4-b][1,4,5]oxathiazepine-6-carboxamide] | > 25 µM |  | 6.89 |
| CC1C/C=C\c2c(cn(C)c2C(=O)Nc2ccc(F)c(F)c2)S(=O)(=O)N1 (single isomer, unassigned) [Compound 15a, (5Z)—N-(3,4-difluorophenyl)-3,8-dimethyl-1,1-dioxo-3,4-dihydro-2H-pyrrolo[3,4-g]thiazocine-7-carboxamide] | > 25 µM | 7.11 |  |
| C[C@H]1C=Cc2c(cn(C)c2C(=O)Nc2ccnc(Br)c2)S(=O)(=O)N1 (single isomer, unassigned) [Compound 50, (3*S)—N-(2-bromo-4-pyridyl)-3,7-dimethyl-1,1-dioxo-2,3-dihydropyrrolo[3,4-f]thiazepine-6-carboxamide] | > 25 µM |  | 8.70 |
| Cn1cc2c(c1C(=O)Nc1ccc(F)c(F)c1)CCC(C(F)(F)F)NS2(=O)=O (centres unmarked) [Compound 47, N-(3,4-difluorophenyl)-7-methyl-1,1-dioxo-3-(trifluoromethyl)-2,3,4,5-tetrahydropyrrolo[3,4-f]thiazepine-6-carboxamide] | > 25 µM |  | 7.77 |
| CC1NS(=O)(=O)c2cn(C)c(C(=O)Nc3ccc(F)c(F)c3)c2OC1C (centres unmarked) [Compound 28, N-(3,4-difluorophenyl)-3,4,7-trimethyl-1,1-dioxo-3,4-dihydro-2H-pyrrolo[3,4-b][1,4,5]oxathiazepine-6-carboxamide] | > 25 µM |  | 6.05 |
